The supplement of paper PMC10307832

Experiments:
Experiment in all cases: relative viability (nuclei count vs DMSO), 5 days (fraction); higher = more cells survive
[1] = compound: Cc1ccc2nc(NCCN)c3ncc(C)n3c2c1 + CC(=O)c1c(C)c2cnc(Nc3ccc(N4CCNCC4)cn3)nc2n(C2CCCC2)c1=O [Palbociclib] (partner 0.5 µM)
Outline: (§1)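 Dosing by pin tool came one day after lung cancer cell lines were seeded in 1536-well plates, using either one drug or a fixed anchor-drug dose plus five library-drug doses (not always all listed) in √10 steps. After 5 days, nuclei were counted on 4× images. Relative viability is treated-well nuclei count divided by vehicle-well nuclei count, and values are medians of duplicate plates.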

[2] = compound: Cc1ccc2nc(NCCN)c3ncc(C)n3c2c1 + Cc1nc(NC(=O)N2CCC[C@H]2C(N)=O)sc1-c1ccnc(C(C)(C)C(F)(F)F)c1 [Alpelisib] (partner 2 µM)
Outline: as §1

[3] = compound: O=C(/C=C/c1ccccc1)NC(NC(=S)Nc1cccc2cccnc12)C(Cl)(Cl)Cl [Salubrinal] + CS(=O)(=O)N1CCN(Cc2cc3nc(-c4cccc5[nH]ncc45)nc(N4CCOCC4)c3s2)CC1 [Pictilisib] (partner 1 µM)
Outline: as §1

[4] = compound: O=C(/C=C/c1ccccc1)NC(NC(=S)Nc1cccc2cccnc12)C(Cl)(Cl)Cl [Salubrinal] + Nc1nc2[nH]cc(CCc3ccc(C(=O)N[C@@H](CCC(=O)O)C(=O)O)cc3)c2c(=O)[nH]1 [Pemetrexed] (partner 0.2 µM)
Outline: as §1

Cell Line	relative viability ([1]; first compound 0.04 µM)	relative viability ([1]; first compound 0.1265 µM)	relative viability ([1]; first compound 0.4 µM)	relative viability ([1]; first compound 1.265 µM)	relative viability ([1]; first compound 4 µM)	relative viability ([2]; first compound 0.04 µM)	relative viability ([2]; first compound 0.1265 µM)	relative viability ([2]; first compound 0.4 µM)	relative viability ([2]; first compound 1.265 µM)	relative viability ([2]; first compound 4 µM)	relative viability ([3]; first compound 0.08 µM)	relative viability ([3]; first compound 0.253 µM)	relative viability ([3]; first compound 0.8 µM)	relative viability ([3]; first compound 2.53 µM)	relative viability ([3]; first compound 8 µM)	relative viability ([4]; first compound 0.08 µM)	relative viability ([4]; first compound 0.253 µM)	relative viability ([4]; first compound 0.8 µM)	relative viability ([4]; first compound 2.53 µM)	relative viability ([4]; first compound 8 µM)
NCI-H2009	0.238	0.202	0.245	0.275	0.295	1.23	1.17	1.16	1.19	1.05	0.976	0.857	1.02	0.756	0.749	1.08	0.928	1.08	1.02	0.965
NCI-H2023	0.369	0.366	0.366	0.433	0.238	0.637	0.573	0.616	0.563	0.549	0.22	0.278	0.289	0.277	0.208	0.265	0.198	0.292	0.225	0.178
NCI-H2085	0.49	0.514	0.465	0.469	0.478	1.01	0.943	0.961	1.06	1.11	0.464	0.475	0.512	0.542	0.489	1.03	0.88	0.923	0.941	0.867
NCI-H2087	0.253	0.271	0.174	0.286	0.323	1.07	1.15	0.998	0.963	0.998	0.917	0.892	1.02	0.853	0.963	0.649	0.532	0.699	0.644	0.63
NCI-H2126	0.392	0.392	0.319	0.403	0.372	0.738	0.73	0.77	0.719	0.782	0.423	0.479	0.515	0.483	0.481	0.676	0.683	0.747	0.708	0.626
NCI-H2170	0.388	0.445	0.356	0.381	0.342	0.844	0.805	0.801	0.805	0.67	0.29	0.315	0.335	0.294	0.271	0.258	0.273	0.318	0.258	0.257
NCI-H2228	0.649	0.763	0.908	0.782	0.648	0.626	0.639	0.974	0.832	0.613	0.472	0.356	0.31	0.543	0.321	0.334	–	0.404	0.326	0.277
NCI-H2347	0.431	0.451	0.417	0.433	0.455	1.06	0.978	1.06	0.91	1.01	0.805	0.517	0.905	0.678	0.434	0.43	0.43	0.423	0.452	0.529
